Calls of active or inactive are those of the source.
Tests used:
[1] = molecular target: ADP-ribosylation factor GTPase-activating protein 1 (Rattus norvegicus, UniProt Q62848); assay: Fluorescence polarization-based biochemical high throughput dose response screening assay to identify inhibitors of ADP-ribosylation factor GTPase activating protein 1 (ARFGAP1).; type: functional
[2] = molecular target: Arf-GAP with SH3 domain, ANK repeat and PH domain-containing protein 1 (Homo sapiens, UniProt Q9ULH1); type: functional;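 further: biochemical fluorescence polarization dose–response screen measuring inhibition of ASAP1; ASAP1 GAP domain stimulating GTP hydrolysis by truncated human ARF1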
Chain of Arf-GAP with SH3 domain, ANK repeat and PH domain-containing protein 1 (Q9ULH1 whole entry, the tested form may be a part): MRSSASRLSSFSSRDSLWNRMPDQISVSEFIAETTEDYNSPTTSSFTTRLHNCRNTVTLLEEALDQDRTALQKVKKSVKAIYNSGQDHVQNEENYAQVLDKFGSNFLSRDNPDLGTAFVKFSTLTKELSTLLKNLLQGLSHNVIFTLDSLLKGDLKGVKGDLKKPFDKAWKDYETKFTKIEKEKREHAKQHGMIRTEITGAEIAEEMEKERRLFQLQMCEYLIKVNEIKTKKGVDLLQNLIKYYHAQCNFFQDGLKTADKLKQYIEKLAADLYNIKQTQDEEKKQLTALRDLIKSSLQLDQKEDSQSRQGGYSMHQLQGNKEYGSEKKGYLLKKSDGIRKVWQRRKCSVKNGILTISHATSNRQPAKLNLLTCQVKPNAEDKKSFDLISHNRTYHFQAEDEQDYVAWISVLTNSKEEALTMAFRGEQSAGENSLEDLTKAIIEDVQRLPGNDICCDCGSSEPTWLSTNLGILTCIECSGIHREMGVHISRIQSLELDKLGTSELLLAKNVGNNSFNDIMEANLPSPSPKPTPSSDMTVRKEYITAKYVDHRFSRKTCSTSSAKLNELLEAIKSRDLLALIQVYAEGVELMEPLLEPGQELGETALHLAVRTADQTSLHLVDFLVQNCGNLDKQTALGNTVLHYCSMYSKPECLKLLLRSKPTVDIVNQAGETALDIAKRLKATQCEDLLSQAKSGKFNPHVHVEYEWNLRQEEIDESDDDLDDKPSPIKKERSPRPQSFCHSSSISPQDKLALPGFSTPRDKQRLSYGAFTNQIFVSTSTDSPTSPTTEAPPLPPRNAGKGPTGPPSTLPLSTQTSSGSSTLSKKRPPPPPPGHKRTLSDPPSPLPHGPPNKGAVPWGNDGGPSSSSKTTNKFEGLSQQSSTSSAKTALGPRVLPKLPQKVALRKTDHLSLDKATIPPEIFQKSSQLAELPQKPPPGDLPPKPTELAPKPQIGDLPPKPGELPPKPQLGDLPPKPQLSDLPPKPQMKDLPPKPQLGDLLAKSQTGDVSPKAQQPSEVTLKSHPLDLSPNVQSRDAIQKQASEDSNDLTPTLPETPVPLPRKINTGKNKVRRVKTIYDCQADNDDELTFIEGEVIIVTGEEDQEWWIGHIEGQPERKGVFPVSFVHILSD

Beta-lactamase [3] = molecular target: T1, Beta-lactamase (Pseudomonas aeruginosa, UniProt Q79MP6); assay: […] counterscreen for selective VIM-2 inhibitors: dose response biochemical high throughput screening assay to identify inhibitors of IMP-1 metallo-beta-lactamase.
T1 sequence (Q79MP6 whole entry): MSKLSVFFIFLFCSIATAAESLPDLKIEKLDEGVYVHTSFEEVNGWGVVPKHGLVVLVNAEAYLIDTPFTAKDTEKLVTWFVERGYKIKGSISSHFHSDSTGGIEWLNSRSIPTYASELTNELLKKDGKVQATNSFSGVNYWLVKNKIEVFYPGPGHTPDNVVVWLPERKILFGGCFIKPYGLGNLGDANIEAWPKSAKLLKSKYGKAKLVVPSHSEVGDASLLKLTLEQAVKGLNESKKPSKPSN

Beta-lactamase [4] = molecular target: T1, Beta-lactamase; assay: IMP-1 metallo-beta-lactamase inhibitors, dose response, selectivity assay for VIM-2 inhibitor project, biochemical, epi-absorbance (AID 1920)
Coagulation factor XII = molecular target: T2, Coagulation factor XII (Homo sapiens, UniProt P00748); type: functional;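 further: activated factor XIIa alpha cleaving a fluorogenic AMC peptide substrate; inhibitor potency from loss of enzyme activity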
T2 sequence (P00748 whole entry): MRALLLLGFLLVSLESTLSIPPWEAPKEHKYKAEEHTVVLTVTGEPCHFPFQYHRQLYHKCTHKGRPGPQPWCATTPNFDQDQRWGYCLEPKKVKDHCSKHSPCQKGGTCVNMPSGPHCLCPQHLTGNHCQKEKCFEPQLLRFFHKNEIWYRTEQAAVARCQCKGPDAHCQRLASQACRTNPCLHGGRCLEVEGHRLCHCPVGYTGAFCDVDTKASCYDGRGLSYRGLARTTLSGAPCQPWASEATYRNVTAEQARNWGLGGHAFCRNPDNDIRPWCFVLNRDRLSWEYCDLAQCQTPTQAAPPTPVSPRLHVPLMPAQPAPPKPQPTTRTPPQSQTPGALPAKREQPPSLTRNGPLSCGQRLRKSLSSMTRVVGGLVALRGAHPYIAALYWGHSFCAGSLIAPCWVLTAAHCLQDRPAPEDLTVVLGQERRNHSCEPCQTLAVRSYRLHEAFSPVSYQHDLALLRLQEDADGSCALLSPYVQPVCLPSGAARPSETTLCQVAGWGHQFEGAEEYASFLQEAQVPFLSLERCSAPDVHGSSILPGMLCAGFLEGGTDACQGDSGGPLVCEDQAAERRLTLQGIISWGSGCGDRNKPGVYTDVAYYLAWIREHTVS

Beta-lactamase [5] = molecular target: T3, Beta-lactamase (Salmonella choleraesuis (strain SC-B67), UniProt Q5J463); assay: Epi-absorbance-based counterscreen for selective VIM-2 inhibitors: dose response biochemical high throughput screening assay to identify inhibitors of TEM-1 serine-beta-lactamase.
T3 sequence (Q5J463 whole entry): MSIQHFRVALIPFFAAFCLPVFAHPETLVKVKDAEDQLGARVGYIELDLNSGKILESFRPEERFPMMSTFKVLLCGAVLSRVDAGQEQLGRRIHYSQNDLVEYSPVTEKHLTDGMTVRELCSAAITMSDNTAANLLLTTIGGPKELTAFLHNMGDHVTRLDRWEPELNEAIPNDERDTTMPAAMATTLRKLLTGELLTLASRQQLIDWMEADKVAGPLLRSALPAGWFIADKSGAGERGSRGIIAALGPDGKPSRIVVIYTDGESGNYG

Beta-lactamase [6] = molecular target: T1, Beta-lactamase
Beta-lactamase [7] = molecular target: T3, Beta-lactamase
Galanin receptor type 3 = Galanin receptor type 3 (Homo sapiens, UniProt O60755); assay: Fluorescence-based cell-based primary high throughput dose response assay to identify antagonists of the Galanin Receptor 3 (GalR3).; type: functional
Chain of Galanin receptor type 3 (O60755 whole entry): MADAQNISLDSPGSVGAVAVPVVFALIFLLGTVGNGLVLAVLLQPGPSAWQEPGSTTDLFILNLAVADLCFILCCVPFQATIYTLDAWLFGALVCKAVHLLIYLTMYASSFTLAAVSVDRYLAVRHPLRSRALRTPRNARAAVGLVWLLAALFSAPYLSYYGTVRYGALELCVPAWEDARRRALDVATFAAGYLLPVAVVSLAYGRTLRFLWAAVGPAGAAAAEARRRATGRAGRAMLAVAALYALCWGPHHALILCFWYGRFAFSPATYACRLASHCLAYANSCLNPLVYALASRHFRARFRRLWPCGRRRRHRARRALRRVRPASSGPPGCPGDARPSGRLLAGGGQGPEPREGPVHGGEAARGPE

cells = type: functional, cell-based; conditions: HEK-CNG
Vero = assay: Vero cell toxicity, dose response, cytotoxicity control, plate reader, cherry-pick samples (AID 687020); type: functional, cell-based; conditions: Chlorocebus sabaeus
[8] = HepG2 cell cytotoxicity, dose response, cytotoxicity control, cherry-picks, set 5 (AID 1053118); type: functional, cell-based
[9] = molecular target: T4, Sentrin-specific protease 1 (Homo sapiens, UniProt Q9P0U3); assay: potency of human SENP1 inhibitors, dose response, biochemical, kinetic FRET (AID 651697); type: functional; conditions: read-out: IC50_Mean
T4 sequence (Q9P0U3 whole entry, the tested form may be a part): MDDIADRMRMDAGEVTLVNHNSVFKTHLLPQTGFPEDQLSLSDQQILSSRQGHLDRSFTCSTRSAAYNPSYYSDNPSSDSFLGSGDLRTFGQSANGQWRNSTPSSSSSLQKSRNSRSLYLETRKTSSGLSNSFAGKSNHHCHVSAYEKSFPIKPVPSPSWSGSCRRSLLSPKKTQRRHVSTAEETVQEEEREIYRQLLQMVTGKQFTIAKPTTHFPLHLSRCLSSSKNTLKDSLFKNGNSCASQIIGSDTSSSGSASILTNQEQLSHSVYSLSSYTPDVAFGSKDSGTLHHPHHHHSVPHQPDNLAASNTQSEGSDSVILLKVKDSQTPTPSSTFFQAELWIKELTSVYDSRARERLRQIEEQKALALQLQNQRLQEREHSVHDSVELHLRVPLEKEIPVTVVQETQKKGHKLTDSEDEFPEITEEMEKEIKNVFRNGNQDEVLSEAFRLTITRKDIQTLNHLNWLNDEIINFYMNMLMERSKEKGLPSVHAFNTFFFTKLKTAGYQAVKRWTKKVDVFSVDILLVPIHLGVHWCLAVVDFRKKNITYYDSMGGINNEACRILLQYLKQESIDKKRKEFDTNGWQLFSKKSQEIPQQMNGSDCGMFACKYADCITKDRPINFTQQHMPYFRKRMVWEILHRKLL

[10] = molecular target: T4, Sentrin-specific protease 1; assay: Dose response confirmation of small molecule inhibitors of the catalytic domain of the SUMO protease, SENP1 in a FRET assay.; type: functional; conditions: read-out: IC50_Mean
[11] = CEM21 lymphoblast cell cytotoxicity, dose response, cytotoxicity control for viral fusion inhibitor project, CellTiter-Glo luminescence, cherry-picked (AID 652042); type: functional, cell-based;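 further: potency for signal decrease meaning cytotoxicity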
[12] = intracellular Trypanosoma cruzi inhibitors in host cells – cell-based, plate reader, cherry-pick samples, set 3, dose response (AID 651818); type: functional;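 further: compounds incubated with infected cells for about four days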
[13] = inhibitors of HIV Env-driven cell fusion, dose response, cherry-pick (AID 652057); type: functional, cell-based
[14] = NIH/3T3 fibroblast cytotoxicity, dose response, cytotoxicity control for T. cruzi growth inhibitor project, cell-based, cherry-pick samples, set 2 (AID 651817); type: functional; conditions: NIH3T3
[15] = inhibitors of clade B AD8 Env fusion, dose response, cell-based, cherry-pick (AID 652062); type: functional;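 further: luciferase signal from cell-cell fusion driven by HIV-1 clade B AD8 Env; potency is for inhibitors of fusion seen as a drop in luminescence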
[16] = molecular target: T5, Aryl hydrocarbon receptor (Homo sapiens, UniProt P35869); conditions: Potency;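 further: confirmatory quantitative high-throughput screen measuring activation of the AhR signaling pathway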
T5 sequence (P35869 whole entry): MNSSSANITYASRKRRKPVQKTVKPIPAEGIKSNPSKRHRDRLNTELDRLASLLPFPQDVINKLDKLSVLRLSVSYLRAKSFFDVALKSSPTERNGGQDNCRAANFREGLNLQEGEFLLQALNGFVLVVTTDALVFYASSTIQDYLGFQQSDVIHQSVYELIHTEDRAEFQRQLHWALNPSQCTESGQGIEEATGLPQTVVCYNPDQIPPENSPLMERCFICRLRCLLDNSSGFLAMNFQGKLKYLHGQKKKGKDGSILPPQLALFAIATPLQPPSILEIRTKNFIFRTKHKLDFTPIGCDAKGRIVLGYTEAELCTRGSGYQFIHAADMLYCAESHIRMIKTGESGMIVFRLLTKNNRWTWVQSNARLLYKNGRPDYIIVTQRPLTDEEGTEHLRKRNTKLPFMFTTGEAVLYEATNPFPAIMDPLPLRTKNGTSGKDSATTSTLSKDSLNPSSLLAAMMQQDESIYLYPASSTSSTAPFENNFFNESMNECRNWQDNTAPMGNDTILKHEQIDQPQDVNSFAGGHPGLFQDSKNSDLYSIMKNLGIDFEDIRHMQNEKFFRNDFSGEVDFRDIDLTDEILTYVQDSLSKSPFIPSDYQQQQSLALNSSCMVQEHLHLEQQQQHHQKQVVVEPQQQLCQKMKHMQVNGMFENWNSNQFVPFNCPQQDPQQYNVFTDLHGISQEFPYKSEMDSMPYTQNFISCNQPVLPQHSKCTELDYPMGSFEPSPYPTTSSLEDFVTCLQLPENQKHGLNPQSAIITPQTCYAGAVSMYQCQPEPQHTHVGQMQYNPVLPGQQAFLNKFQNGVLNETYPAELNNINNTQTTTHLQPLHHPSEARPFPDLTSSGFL

[17] = TRPM1 promoter luciferase reporter signal decrease, dose response, MITF inhibitor project, cell-based, SK-MEL-5, dry powder, set 8 (AID 624430); type: functional
[18] = MITF Orthogonal Assay: SK-MEL-5 CTG Assay Measured in Cell-Based System Using Plate Reader - 2084-02_Inhibitor_Dose_DryPowder_Activity_Set7.; type: functional
[19] = MITF: Counter assay: A375 proliferation Measured in Cell-Based System Using Plate Reader - 2084-03_Inhibitor_Dose_DryPowder_Activity_Set8.; type: functional; conditions: A-375
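Wherever EC50 is given: target is galanin receptor GalR3 read with a cAMP biosensor in HEK293 cells.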

Chain of ADP-ribosylation factor GTPase-activating protein 1 (Q62848 whole entry, the tested form may be a part): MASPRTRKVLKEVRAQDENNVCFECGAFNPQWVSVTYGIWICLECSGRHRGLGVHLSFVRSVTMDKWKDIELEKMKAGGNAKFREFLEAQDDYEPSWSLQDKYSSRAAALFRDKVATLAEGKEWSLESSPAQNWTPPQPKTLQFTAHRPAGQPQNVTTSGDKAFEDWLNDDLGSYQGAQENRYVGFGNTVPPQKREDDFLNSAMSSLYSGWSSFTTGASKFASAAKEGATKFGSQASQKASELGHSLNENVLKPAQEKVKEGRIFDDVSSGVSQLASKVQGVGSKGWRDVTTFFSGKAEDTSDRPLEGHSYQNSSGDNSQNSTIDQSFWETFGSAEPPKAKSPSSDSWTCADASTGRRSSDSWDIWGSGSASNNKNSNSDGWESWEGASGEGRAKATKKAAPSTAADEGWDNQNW

## COc1ccc(/C=N\NC(=O)c2ccc([N+](=O)[O-])cc2)cc1COc1c(F)c(F)cc(F)c1F
[1]
  IC50: 12.4 µM (inactive)
[2]
  IC50: 15.7 µM (inactive)

## CSc1nc(SCC(=O)O)c2c3c(sc2n1)COC(C)(C)C3
Beta-lactamase [3]
  IC50: > 59.6 µM (inactive)
Beta-lactamase [4]
  IC50: > 59.6 µM (inactive)
Coagulation factor XII
  IC50: > 50 µM (inactive)
Beta-lactamase [5]
  IC50: > 59.6 µM (inactive)

## O=C(Nc1ccc(C(F)(F)F)cc1)c1ccc(NC(=O)C2CCCO2)cc1 (stereo not drawn)
Beta-lactamase [6]
  IC50: 47.5 µM (inactive)
Beta-lactamase [7]
  IC50: > 59.6 µM (inactive)

## C[C@H]1C[C@H]2[C@@H]3CCC4=CC(=O)C=C[C@]4(C)[C@@]3(F)[C@@H](O)C[C@]2(C)[C@@]1(O)C(=O)CO [BETAMETHASONE]
Galanin receptor type 3
  IC50: > 29.9 µM (inactive)
cells
  EC50: > 29.9 µM (inactive)

## Cc1cccc(OC(C)C(=O)Nc2nc(-c3ccncc3)cs2)c1 (stereo not drawn)
Vero
  AC50: 35.8 µM (active)

## COCC(=O)Nc1ccc2c(c1)C(=O)N(C)[C@H]1CC[C@@H](CC(=O)NCc3ccccc3Cl)O[C@@H]1CO2
[8]
  AC50: > 52 µM (inactive)

## Nc1ccc2c(c1)C(=NO)c1cc([N+](=O)[O-])ccc1-2
[9]
  IC50: 18.1 µM (active)
[10]
  IC50: 3.12 µM (active)

## C[C@@H]1CN([C@H](C)CO)C(=O)c2cccc(NC(=O)c3ccncc3)c2O[C@H]1CN(C)Cc1ccc(Cl)c(Cl)c1
[11]
  AC50: 38.5 µM (active)
[12]
  AC50: 0.08 µM (active)
[13]
  AC50: 7.3 µM (active)
[14]
  AC50: 27.6 µM (active)
[15]
  AC50: 29.8 µM (active)

## CNc1cnn(-c2cccc(C(F)(F)F)c2)c(=O)c1Cl [NORFLURAZONE]
[16]
  AC50: 31.6 µM (inconclusive)

## CCN1CCN(C2=C(Nc3cccc(Br)c3)C(=O)c3ccccc3C2=O)CC1
[17]
  AC50: 3.45 µM (active)
[18]
  AC50: 8.08 µM (active)
[19]
  AC50: 26.2 µM (active)

— ChEMBL document CHEMBL1201862, “PubChem BioAssay data set” (2004)
